Measurements as given in US20050239656A1, “Pyridine compounds or salts thereof and herbicides containing the same” (priority 2002, published 2005).

Tests used:
barnyardgrass [1] = test: Test Example 2: soil surface treatment, upland pot test; assay type: in vivo, Echinochloa crus-galli L.
Text: (§1) Upland field soil was put into a 1/170,000 ha pot, and seed of various plants (barnyardgrass, crabgrass, green foxtail, redroot pigweed, prickly sida, velvetleaf, rice, wheat, corn, soybean) were sown. On the 1st day after the sowing, a wettable powder or emulsifiable concentrate having the compound of the present invention formulated in accordance with a usual formulation method, was weighed so that the active ingredient would be a predetermined amount, and diluted with water in an amount of 1,500 L/ha. The herbicide thus adjusted was applied by a small size sprayer for soil surface treatment. On the 20th to 28th days after the application of the herbicide, the growth of the respective plants was visually observed, and the herbicidal effects were evaluated by the growth controlling degrees (%) ranging from 0 (equivalent to the non-treated plot) to 100 (complete kill), whereby the results shown in Table 4, were obtained.

crabgrass = test: as above; assay type: in vivo, Digitaria sanguinalis L.
Text: as §1

green foxtail = test: as above; assay type: in vivo, Setaria viridis L.
Text: as §1

redroot pigweed = test: as above; assay type: in vivo, Amaranthus retroflexus L.
Text: as §1

prickly sida = test: as above; assay type: in vivo, Sida spinosa L.
Text: as §1

velvetleaf = test: as above; assay type: in vivo, Abutilon theophrasti MEDIC.
Text: as §1

rice = test: as above; assay type: in vivo, Oryza sativa L.
Text: as §1

corn = test: as above; assay type: in vivo, Zea mays L.
Text: as §1

soybean = test: as above; assay type: in vivo, Glycine max Merr.
Text: as §1

barnyardgrass [2] = test: Test Example 3: paddy pot test, application under submerged conditions; assay type: in vivo, Echinochloa crus-galli L.; settings: submerged application at 0.5 leaf stage, visually observed 14 days after application, 0 = non-treated, 100 = complete kill
Summary of the method: (§2)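 Barnyardgrass and japanese bulrush sown in flooded paddy soil in greenhouse pots, japanese ribbon wapato tubers planted 1–2 days later; water depth kept at 3–4 cm. Diluted wettable powder or emulsifiable concentrate applied into water at 0.5-leaf or primary-leaf stage at set active-ingredient doses. Growth control scored visually at 14 days, 0 (untreated) to 100% (complete kill).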

japanese bulrush = test: as above; assay type: in vivo, Scirpus juncoides; settings: submerged application at 0.5 leaf stage, visually observed 14 days after application, 0 = non-treated, 100 = complete kill
Summary of the method: as §2

japanese ribbon wapato = test: as above; assay type: in vivo, Sagittaria pygniaea; settings: submerged application at primary leaf stage, visually observed 14 days after application, 0 = non-treated, 100 = complete kill
Summary of the method: as §2

rice (var. Nihonbare) = test: Test Example 3: paddy pot test, transplanted rice; assay type: in vivo, Oryza sativa L.; settings: applied 4th day after transplantation, visually observed 21st day after application, 0 = non-treated, 100 = complete kill
Summary of the method: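 Rice (var. Nihonbare) at 2 leaf stage transplanted 3 cm deep into puddled paddy soil under 3–4 cm flooding; on day 4 after transplanting, diluted wettable powder or emulsifiable concentrate applied by pipette under submerged conditions at a set active-ingredient dose. Growth scored visually 21 days after application, 0 (untreated) to 100 (complete kill) %.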

[3] = active ingredient 500 g/ha, observed 20th to 28th day
[4] = active ingredient 500 g/ha, observed day 21, 0 = non-treated, 100 = complete kill
[5] = active ingredient 250 g/ha, observed 20th to 28th day

Row | SMILES | Growth controlling degree (%) Barnyardgrass (barnyardgrass [1]; [3]) [%] | Growth controlling degree (%) Crabgrass (crabgrass; [3]) [%] | Growth controlling degree (%) Green foxtail (green foxtail; [3]) [%] | Growth controlling degree (%) Redroot pigweed (redroot pigweed; [3]) [%] | Growth controlling degree (%) Prickly sida (prickly sida; [3]) [%] | Growth controlling degree (%) Velvetleaf (velvetleaf; [3]) [%] | Growth controlling degree (%) Rice (rice; [3]) [%] | Growth controlling degree (%) Corn (corn; [3]) [%] | Growth controlling degree (%) Soyabean (soybean; [3]) [%] | Growth controlling degree (%) Barnyardgrass (barnyardgrass [2]; active ingredient 250 g/ha) [%] | Growth controlling degree (%) Japanese bulrush (japanese bulrush; active ingredient 250 g/ha) [%] | Growth controlling degree (%) Japanese ribbon wapato (japanese ribbon wapato; active ingredient 250 g/ha) [%] | Growth controlling degree (%) Rice (rice (var. Nihonbare); active ingredient 250 g/ha) [%] | further results
1 | Cc1ccc(OCC(=O)N(C)C(c2cnccc2C(F)(F)F)C(C)C)cc1 (stereo not shown) [Compound I-239] | 60 | 95 | 90 | 70 | 80 | 30 | 0 | 10 | 10 | 98 | 98 | 70 | 0 | 
2 | CC(C)C(c1cnccc1C(F)(F)F)N(C)C(=O)CCc1ccccc1 (stereo not shown) [I-169] | 100 | 98 | 100 | 70 | 90 | 20 | 40 | 40 | 30 | 100 | 50 | 0 | 10 | 
3 | CC(C)C(c1cnccc1C(F)(F)F)N(C)C(=O)N(C)c1ccccc1 (stereo not shown) [I-232] | 100 | 100 | 100 | 80 | 95 | 70 | 30 | 30 | 0 |  |  |  |  | Growth controlling degree (%) Barnyardgrass (barnyardgrass [2]; active ingredient 500 g/ha): 100%; Growth controlling degree (%) Japanese bulrush (japanese bulrush; active ingredient 500 g/ha): 90%; Growth controlling degree (%) Japanese ribbon wapato (japanese ribbon wapato; active ingredient 500 g/ha): 70%; Growth controlling degree (%) Rice (rice (var. Nihonbare); active ingredient 500 g/ha): 60%
4 | CCN(C(=O)Cc1ccc(F)cc1)C(c1cnccc1C(F)(F)F)C(C)C (stereo not shown) [Compound I-99] | 100 | 98 | 100 | 40 | 95 | 40 | 20 | 40 | 30 | 100 | 98 | 90 | 0 | 
5 | CC(C)C(c1cnccc1C(F)(F)F)N(C)C(=O)COc1cc(F)ccc1F (stereo not shown) [Compound I-245] |  |  |  |  |  |  |  |  |  | 100 | 95 | 70 | 10 | Growth controlling degree (%) Barnyardgrass (barnyardgrass [1]; [4]): 90%; Growth controlling degree (%) Crabgrass (crabgrass; [4]): 80%; Growth controlling degree (%) Green foxtail (green foxtail; [4]): 80%; Growth controlling degree (%) Redroot pigweed (redroot pigweed; [4]): 50%; Growth controlling degree (%) Prickly sida (prickly sida; [4]): 70%; Growth controlling degree (%) Velvetleaf (velvetleaf; [4]): 0%; Growth controlling degree (%) Rice (rice; [4]): 35%; Growth controlling degree (%) Corn (corn; [4]): 50%; Growth controlling degree (%) Soyabean (soybean; [4]): 40%
6 | CC(C)C(c1cnccc1C(F)(F)F)N(C)C(=O)COc1ccc(Br)cc1 (stereo not shown) [I-255] |  |  |  |  |  |  |  |  |  | 100 | 95 | 20 | 0 | Growth controlling degree (%) Barnyardgrass (barnyardgrass [1]; [4]): 95%; Growth controlling degree (%) Crabgrass (crabgrass; [4]): 98%; Growth controlling degree (%) Green foxtail (green foxtail; [4]): 98%; Growth controlling degree (%) Redroot pigweed (redroot pigweed; [4]): 70%; Growth controlling degree (%) Prickly sida (prickly sida; [4]): 98%; Growth controlling degree (%) Velvetleaf (velvetleaf; [4]): 70%; Growth controlling degree (%) Rice (rice; [4]): 20%; Growth controlling degree (%) Corn (corn; [4]): 30%; Growth controlling degree (%) Soyabean (soybean; [4]): 10%
7 | CC(C)C(c1cnccc1C(F)(F)F)N(C)C(=O)CC1C=CCC1 (stereo not shown) [I-183] | 100 | 100 | 100 | 95 | 30 | 50 | 60 | 10 | 10 |  |  |  |  | Growth controlling degree (%) Barnyardgrass (barnyardgrass [2]; active ingredient 500 g/ha): 100%; Growth controlling degree (%) Japanese bulrush (japanese bulrush; active ingredient 500 g/ha): 100%; Growth controlling degree (%) Japanese ribbon wapato (japanese ribbon wapato; active ingredient 500 g/ha): 70%; Growth controlling degree (%) Rice (rice (var. Nihonbare); active ingredient 500 g/ha): 10%
8 | CC(C)C(c1cnccc1C(F)(F)F)N(C)C(=O)Cc1cc(C(F)(F)F)ccc1F (stereo not shown) [Compound I-96] | 60 | 85 | 100 | 80 | 70 | 50 | 10 | 20 | 20 | 100 | 100 | 0 | 30 | 
9 | CC(C)C(c1cnccc1C(F)(F)F)N(C)C(=O)COc1ccccc1F (stereo not shown) [Compound I-243] | 90 | 100 | 100 | 80 | 90 | 30 | 10 | 40 | 10 | 100 | 98 | 70 | 0 | 
10 | CC(C)C(c1cnccc1C(F)(F)F)N(C)C(=O)C=Cc1ccc(F)cc1 (stereo not shown) [I-172] | 40 | 98 | 95 | 60 | 80 | 10 | 20 | 10 | 0 | 100 | 98 | 95 | 0 | 
11 | CC(C)C(c1cnccc1C(F)(F)F)N(C)C(=O)Cc1ccccc1F (stereo not shown) [Compound I-25] |  |  |  |  |  |  |  |  |  |  |  |  |  | Growth controlling degree (%) Barnyardgrass (barnyardgrass [1]; [5]): 98%; Growth controlling degree (%) Crabgrass (crabgrass; [5]): 100%; Growth controlling degree (%) Green foxtail (green foxtail; [5]): 100%; Growth controlling degree (%) Redroot pigweed (redroot pigweed; [5]): 100%; Growth controlling degree (%) Prickly sida (prickly sida; [5]): 100%; Growth controlling degree (%) Velvetleaf (velvetleaf; [5]): 95%; Growth controlling degree (%) Rice (rice; [5]): 20%; Growth controlling degree (%) Corn (corn; [5]): 20%; Growth controlling degree (%) Soyabean (soybean; [5]): 10%; Growth controlling degree (%) Japanese bulrush (japanese bulrush; active ingredient 500 g/ha): 98%; Growth controlling degree (%) Japanese ribbon wapato (japanese ribbon wapato; active ingredient 500 g/ha): 100%; Growth controlling degree (%) Rice (rice (var. Nihonbare); active ingredient 500 g/ha): 30%
